Patent US4169197A, “6-Deoxyneamines aminoglycoside compounds” (The Upjohn Company, priority 1978, dated 1979)
In brackets after ≈: the same amount, converted by molar mass. Read-outs that look alike come from different tables or passages of the source.

Tests used:
Assay type in all cases: cell-based
[1] = test system: B. subtilis UC 564; experiment: standard disc plate assay, zones of inhibition; conditions: Bacillus subtilis, UC564, 12.5 mm paper discs, read-out: Zones of Inhibition; for zone of inhibition at 100 µg/mL: 0.1 mg/ml; for zone of inhibition at 1000 µg/mL: 1 mg/ml
Source text: (§1) The compounds of formulas (V, VII, IX, XI, XIV, XVI, and XIX) are active as antibacterials and can be used in various environments to erradicate or control susceptible microorganisms. Tables I and II set forth the in vitro antibacterial test results for representative compounds of the present invention. The results were obtained with a standard disc plate assay using 12.5 mm paper discs.

[2] = test system: E. coli UC 51; experiment: standard disc plate assay, zones of inhibition; conditions: Escherichia coli, UC51, 12.5 mm paper discs, read-out: Zones of Inhibition; for zone of inhibition at 100 µg/mL: 0.1 mg/ml; for zone of inhibition at 1000 µg/mL: 1 mg/ml
Source text: as §1

[3] = test system: S. aureus UC 80; experiment: standard disc plate assay, zones of inhibition; conditions: Staphylococcus aureus, 12.5 mm paper discs; for zone of inhibition at 100 µg/mL: 0.1 mg/ml
Source text: as §1

[4] = test system: K. pneumoniae UC 57; experiment: standard disc plate assay, zones of inhibition; conditions: Klebsiella pneumoniae, UC57, 12.5 mm paper discs, read-out: Zones of Inhibition; for zone of inhibition at 100 µg/mL: 0.1 mg/ml; for zone of inhibition at 1000 µg/mL: 1 mg/ml
Source text: as §1

[5] = test system: S. gallinarum UC 265; experiment: standard disc plate assay, zones of inhibition; conditions: Salmonella enterica, 12.5 mm paper discs, read-out: Zones of Inhibition; for zone of inhibition at 100 µg/mL: 0.1 mg/ml; for zone of inhibition at 1000 µg/mL: 1 mg/ml
Source text: as §1

[6] = test system: B. cereus UC 3145; experiment: standard disc plate assay, zones of inhibition; conditions: Bacillus cereus, 12.5 mm paper discs
Source text: as §1

[7] = test system: S. lutea UC 130; experiment: standard disc plate assay, zones of inhibition; conditions: Micrococcus luteus, UC130, 1 mg/ml, 12.5 mm paper discs, read-out: Zones of Inhibition
Source text: as §1

[8] = test system: Ps. aeruginosa UC 95; experiment: standard disc plate assay, zones of inhibition; conditions: Pseudomonas aeruginosa, UC95; 1 mg/ml; 12.5 mm paper discs; Table II; read-out: Zones of Inhibition
Source text: as §1

[9] = test system: S. schottmuelleri UC 126; experiment: standard disc plate assay, zones of inhibition; conditions: 1 mg/ml, 12.5 mm paper discs
Source text: as §1

[10] = test system: P. vulgaris UC 93; experiment: standard disc plate assay, zones of inhibition; conditions: Proteus vulgaris, UC93, 1 mg/ml, 12.5 mm paper discs, read-out: Zones of Inhibition
Source text: as §1

[11] = test system: S. typhi UC 215; experiment: standard microplate test in BHI Agar; conditions: Salmonella enterica, 20 h, read-out: Minimal Inhibitory Concentration
Experimental: (§2) The compounds VII, XI, XVβ, XVα and XVI were tested in a standard microplate test in BHI (Brain Heart Infusion) Agar at a concentration of 1 mg./ml. and dilutions thereof at 37° incubation temperature. The end points are read out 20 hours. BHI Agar is supplied by Difco Laboratories, Detroit, Mich.

[12] = test system: P. rettgeri UC 339; experiment: standard microplate test in BHI Agar; conditions: Providencia rettgeri, UC339; BHI Agar, 37°, 20 hours; Table IV; read-out: Minimal Inhibitory Concentration
Experimental: as §2

[13] = test system: S. marcescens UC 131; experiment: standard microplate test in BHI Agar; conditions: Serratia marcescens, UC131; BHI Agar, 37°, 20 hours; Table IV; read-out: Minimal Inhibitory Concentration
Experimental: as §2

[14] = test system: S. aureus UC 76; experiment: standard microplate test in BHI Agar; conditions: Staphylococcus aureus, read-out: Minimal Inhibitory Concentration
Experimental: as §2

[15] = test system: P. mirabilis UC 6671; experiment: standard microplate test in BHI Agar; conditions: Proteus mirabilis, UC6671; BHI Agar, 37°, 20 hours; Table IV; read-out: Minimal Inhibitory Concentration
Experimental: as §2

[16] = test system: S. pyogenes UC 152; experiment: standard microplate test in BHI Agar; conditions: Streptococcus pyogenes, read-out: Minimal Inhibitory Concentration
Experimental: as §2

[17] = test system: S. pneumoniae I UC 41; experiment: standard microplate test in BHI Agar; conditions: Streptococcus pneumoniae, read-out: Minimal Inhibitory Concentration
Experimental: as §2

[18] = test system: S. faecalis UC 694; experiment: standard microplate test in BHI Agar; conditions: Enterococcus faecalis, UC694, 20 h, read-out: Minimal Inhibitory Concentration
Experimental: as §2

[19] = test system: E. coli UC 311; experiment: standard microplate test in BHI Agar; conditions: Escherichia coli, UC311; BHI Agar, 37°, 20 hours; Table IV; read-out: Minimal Inhibitory Concentration
Experimental: as §2

[20] = test system: P. morganii UC 3186; experiment: standard microplate test in BHI Agar; conditions: Morganella morganii, read-out: Minimal Inhibitory Concentration
Experimental: as §2

[21] = test system: S. flexneri UC 143; experiment: standard microplate test in BHI Agar; conditions: Shigella flexneri, UC143, 37°, 20 hours, Table IV, read-out: Minimal Inhibitory Concentration
Experimental: as §2

[22] = test system: K. pneumoniae UC 58; experiment: standard microplate test in BHI Agar; conditions: Klebsiella pneumoniae, read-out: Minimal Inhibitory Concentration
Experimental: as §2

[23] = test system: Ps. aeruginosa UC 95; experiment: standard microplate test in BHI Agar; conditions: Pseudomonas aeruginosa, UC95; BHI Agar, 37°, 20 hours; Table IV; read-out: Minimal Inhibitory Concentration
Experimental: as §2

[24] = test system: S. schottmuelleri UC 126; experiment: standard microplate test in BHI Agar; conditions: 37°, 20 hours, Table IV, read-out: Minimal Inhibitory Concentration
Experimental: as §2

[25] = test system: P. vulgaris UC 93; experiment: standard microplate test in BHI Agar; conditions: Proteus vulgaris, UC93; BHI Agar, 37°, 20 hours; Table IV; read-out: Minimal Inhibitory Concentration
Experimental: as §2

| SMILES | MIC [11] [µg/mL] | MIC [12] [µg/mL] | MIC [13] [µg/mL] | MIC [15] [µg/mL] | MIC [18] [µg/mL] | MIC [19] [µg/mL] | MIC [21] [µg/mL] | MIC [23] [µg/mL] | MIC [24] [µg/mL] | MIC [25] [µg/mL] | zone of inhibition at 100 µg/mL ([1]; Table I) [mm] | zone of inhibition at 1000 µg/mL ([1]; Table I) [mm] | zone of inhibition at 1000 µg/mL ([2]; Table I) [mm] | zone of inhibition at 1000 µg/mL ([4]; Table I) [mm] | zone of inhibition at 1000 µg/mL ([5]; Table I) [mm] | zone of inhibition at 1000 µg/mL ([9]; Table I) [mm] | zone of inhibition at 1000 µg/mL ([10]; Table I) [mm] | also measured |
| --- | --- | --- | --- | --- | --- | --- | --- | --- | --- | --- | --- | --- | --- | --- | --- | --- | --- | --- |
| NC[C@H]1O[C@H](O[C@@H]2[C@@H](N)C[C@@H](N)C[C@@H]2O)[C@H](N)[C@@H](O)[C@@H]1O [6-Deoxy-5-epineamine (XI), 6-deoxy-5-epineamine] | – | – | – | – | – | – | – | – | – | – | – | – | – | – | – | – | – | zone of inhibition at 100 µg/mL ([1]; Table II): 26 mm; zone of inhibition at 1000 µg/mL ([1]; Table II): 35 mm; zone of inhibition at 100 µg/mL ([2]; Table II): 16 mm; zone of inhibition at 1000 µg/mL ([2]; Table II): 24 mm; zone of inhibition at 100 µg/mL ([3]; UC80, Table II, read-out: Zones of Inhibition): 17 mm; zone of inhibition at 1000 µg/mL ([3]; UC80, 1 mg/ml, Table II, read-out: Zones of Inhibition): 24 mm; zone of inhibition at 100 µg/mL ([4]; Table II): 23 mm; zone of inhibition at 1000 µg/mL ([4]; Table II): 30 mm; zone of inhibition at 100 µg/mL ([5]; Table II): 18 mm; zone of inhibition at 1000 µg/mL ([5]; Table II): 27 mm; zone of inhibition at 1000 µg/mL ([6]; UC3145, 1 mg/ml, Table II, read-out: Zones of Inhibition): 22 mm; zone of inhibition at 1000 µg/mL ([7]; Table II): 17 mm; zone of inhibition at 1000 µg/mL [8]: 17 mm; zone of inhibition at 1000 µg/mL ([9]; Table II): 21 mm; zone of inhibition at 1000 µg/mL ([10]; Table II): 24 mm |
| NC[C@H]1O[C@H](O[C@@H]2[C@@H](N)C[C@@H](N)C[C@H]2O[C@@H]2C[C@@H](N)[C@H](O)[C@@H](CO)O2)[C@H](N)[C@@H](O)[C@@H]1O [Compound XVI, O-2,6-diamino-2,6-dideoxy-α-D-glucopyranosyl (1→4)-O-[3-amino-2,3-dideoxy-α-D-arabinohexopyranosyl(1→5)]-2,6-dideoxy-D-streptamine] | > 500 | > 500 | > 500 | > 500 | > 500 | > 500 | > 500 | > 500 | > 500 | > 500 | 25 | 34 | 19 | 24 | 20 | 15 | 18 | MIC ([14]; UC76, BHI Agar, 37°, 20 hours, Table IV): 250 µg/mL (≈ 554 µM); MIC ([16]; UC152, BHI Agar, 37°, 20 hours, Table IV): 250 µg/mL (≈ 554 µM); MIC ([17]; UC41, BHI Agar, 37°, 20 hours, Table IV (printed D. pneumoniae UC 41)): > 500 µg/mL; MIC ([20]; UC3186, BHI Agar, 37°, 20 hours, Table IV): 250 µg/mL (≈ 554 µM); MIC ([22]; UC58, BHI Agar, 37°, 20 hours, Table IV): 125 µg/mL (≈ 277 µM); zone of inhibition at 1000 µg/mL ([3]; UC80, read-out: Zones of Inhibition, 1 mg/ml, Table I): 21 mm; zone of inhibition at 1000 µg/mL ([6]; UC3145, 1 mg/ml, Table I, read-out: Zones of Inhibition): 18 mm |
| NC[C@H]1O[C@H](O[C@@H]2[C@@H](N)C[C@@H](N)C[C@H]2O[C@H]2O[C@H](CO)[C@@H](O)[C@H]2O)[C@H](N)[C@@H](O)[C@@H]1O [Compound XVα, O-2,6-diamino-2,6-dideoxy-α-D-glucopyranosyl (1→4)-O-[α-D-ribofuranosyl(1→5)]-2,6-dieoxy-D-streptamine] | 62.5 (≈ 143 µM) | > 500 | 500 (≈ 1140 µM) | > 500 | > 500 | 250 (≈ 570 µM) | 500 (≈ 1140 µM) | > 500 | 125 (≈ 285 µM) | 500 (≈ 1140 µM) | 25 | 34 | 24 | 31 | 26 | 20 | 23 | MIC ([14]; UC76, 20 h): 125 µg/mL (≈ 285 µM); MIC ([16]; UC152, 20 h): 31.2 µg/mL (≈ 71.2 µM); MIC ([17]; UC41, 20 h): 125 µg/mL (≈ 285 µM); MIC ([20]; UC3186, 20 h): 125 µg/mL (≈ 285 µM); MIC ([22]; UC58, 20 h): 15.6 µg/mL (≈ 35.6 µM); zone of inhibition at 100 µg/mL ([2]; Table I): 17 mm; zone of inhibition at 100 µg/mL ([3]; UC80, Table I, read-out: Zones of Inhibition): 17 mm; zone of inhibition at 1000 µg/mL ([3]; UC80, 1 mg/ml, Table I, read-out: Zones of Inhibition): 25 mm; zone of inhibition at 100 µg/mL ([4]; Table I): 23 mm; zone of inhibition at 100 µg/mL ([5]; Table I): 17 mm; zone of inhibition at 1000 µg/mL ([6]; UC3145, read-out: Zones of Inhibition, 1 mg/ml, Table I): 20 mm; zone of inhibition at 1000 µg/mL ([7]; Table I): 16 mm |
